{"source": "ChEMBL document CHEMBL4619814", "about": "“Identification and Development of 1,4-Diaryl-1,2,3-triazolo-Based Ureas as Novel FLT3 Inhibitors” (ACS Med Chem Lett, 2020)", "key": {"[1]": {"system": "MV4-11", "assay": "Induction of apoptosis in human MV4-11 cells assessed as necrotic cells at 20 nM incubated for 48 hrs by annexin V and 7-AAD staining based flow cytometry analysis (reference value: 0.91 %)", "assay_type": "functional"}, "[2]": {"molecular_target": "Receptor-type tyrosine-protein kinase FLT3 (Homo sapiens) (UniProt P36888)", "sequence (P36888 whole entry)": "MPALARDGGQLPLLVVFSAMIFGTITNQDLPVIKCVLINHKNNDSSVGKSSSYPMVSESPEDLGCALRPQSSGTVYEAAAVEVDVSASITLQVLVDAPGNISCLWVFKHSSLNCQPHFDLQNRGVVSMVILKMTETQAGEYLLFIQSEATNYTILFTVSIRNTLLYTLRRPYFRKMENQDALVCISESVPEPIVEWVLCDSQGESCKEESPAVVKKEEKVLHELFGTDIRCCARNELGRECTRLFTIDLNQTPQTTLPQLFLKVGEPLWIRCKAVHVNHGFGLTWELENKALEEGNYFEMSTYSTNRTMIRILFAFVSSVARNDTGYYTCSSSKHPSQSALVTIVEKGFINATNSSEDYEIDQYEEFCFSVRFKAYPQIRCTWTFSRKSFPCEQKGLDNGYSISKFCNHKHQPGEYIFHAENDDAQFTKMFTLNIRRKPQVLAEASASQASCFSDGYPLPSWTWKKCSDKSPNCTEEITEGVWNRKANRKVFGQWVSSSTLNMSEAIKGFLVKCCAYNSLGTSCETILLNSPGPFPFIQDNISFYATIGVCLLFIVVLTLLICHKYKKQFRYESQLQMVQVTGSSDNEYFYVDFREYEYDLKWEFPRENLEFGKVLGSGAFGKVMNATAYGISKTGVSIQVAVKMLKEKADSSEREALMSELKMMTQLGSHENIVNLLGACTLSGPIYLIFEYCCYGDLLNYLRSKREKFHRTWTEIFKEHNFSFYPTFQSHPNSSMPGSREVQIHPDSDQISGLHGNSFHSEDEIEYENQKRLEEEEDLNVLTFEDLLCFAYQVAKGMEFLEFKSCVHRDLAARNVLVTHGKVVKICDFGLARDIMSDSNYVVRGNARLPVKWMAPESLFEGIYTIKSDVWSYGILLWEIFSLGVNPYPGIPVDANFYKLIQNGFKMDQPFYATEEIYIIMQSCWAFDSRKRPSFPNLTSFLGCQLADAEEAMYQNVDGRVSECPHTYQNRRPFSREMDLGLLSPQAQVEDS", "assay": "Inhibition of FLT3 in human NB4 cells assessed as reduction in FLT3 phosphorylation at 0.8 to 500 nM incubated for 6 hrs by Western blot analysis", "assay_type": "cell-based", "conditions": "NB-4"}, "[3]": {"assay": "Clearance in Sprague-Dawley rat at 25 mg/kg, po", "assay_type": "ADME, organism-based", "conditions": "in vivo"}, "[4]": {"system": "MV4-11", "assay": "Induction of apoptosis in human MV4-11 cells assessed as late apoptotic cells at 100 nM incubated for 48 hrs by annexin V and 7-AAD staining based flow cytometry analysis (reference value: 2.25 %)", "assay_type": "functional"}, "[5]": {"system": "MV4-11", "assay": "Induction of cell cycle arrest in human MV4-11 cells assessed as G2/M phase at 20 nM incubated for 48 hrs by propidium iodide staining based flow cytometry analysis (reference value: 24.88 %)", "assay_type": "functional"}, "[6]": {"assay": "Cmax in Sprague-Dawley rat at 25 mg/kg, po", "assay_type": "ADME, organism-based", "design": "dose 25 mg/kg, route oral", "conditions": "in vivo"}, "[7]": {"system": "MV4-11", "assay": "Induction of apoptosis in human MV4-11 cells assessed as viable cells at 20 nM incubated for 48 hrs by annexin V and 7-AAD staining based flow cytometry analysis (reference value: 90.47 %)", "assay_type": "functional", "conditions": "MV4-11, 48 h, read-out: Activity"}, "[8]": {"assay": "Half life in Sprague-Dawley rat at 25 mg/kg, po", "assay_type": "ADME, organism-based", "conditions": "in vivo"}, "[9]": {"system": "MV4-11", "assay": "Induction of cell cycle arrest in human MV4-11 cells assessed as G0/G1 phase at 100 nM incubated for 48 hrs by propidium iodide staining based flow cytometry analysis (reference value: 54.82 %)", "assay_type": "functional"}, "[10]": {"system": "Receptor-type tyrosine-protein kinase FLT3 (Homo sapiens), P36888 [UNDEFINED MUTATION]", "sequence (P36888 whole entry, looked up, change not shown)": "as the sequence (P36888 whole entry) above", "assay": "Inhibition of FLT3 ITD mutant expressed in human MV4-11 cells assessed as reduction in STAT5 level at > 20 nM incubated for 6 hrs by Western blot analysis relative to control", "assay_type": "cell-based"}, "[11]": {"system": "MV4-11", "assay": "Induction of cell cycle arrest in human MV4-11 cells assessed as reduction in Cyclin E expression at 0.16 to 100 nM by Western blot analysis", "assay_type": "functional, cell-based"}, "[12]": {"system": "MV4-11", "assay": "Induction of apoptosis in human MV4-11 cells assessed as early apoptotic cells at 4 nM incubated for 48 hrs by annexin V and 7-AAD staining based flow cytometry analysis (reference value: 6.36 %)", "assay_type": "functional"}, "[13]": {"system": "MV4-11", "assay": "Induction of cell cycle arrest in human MV4-11 cells assessed as reduction in CDK2 expression at 0.16 to 100 nM by Western blot analysis", "assay_type": "functional, cell-based"}, "[14]": {"system": "MV4-11", "assay": "Induction of apoptosis in human MV4-11 cells assessed as necrotic cells at 4 nM incubated for 48 hrs by annexin V and 7-AAD staining based flow cytometry analysis (reference value: 0.91 %)", "assay_type": "functional"}, "[15]": {"system": "MV4-11", "assay": "Induction of apoptosis in human MV4-11 cells assessed as viable cells at 100 nM incubated for 48 hrs by annexin V and 7-AAD staining based flow cytometry analysis (reference value: 90.47 %)", "assay_type": "functional", "conditions": "MV4-11, 48 h, read-out: Activity"}, "[16]": {"system": "Receptor-type tyrosine-protein kinase FLT3 (Homo sapiens), P36888 [UNDEFINED MUTATION]", "conditions": "MV4-11", "description": "Inhibition of FLT3 ITD mutant expressed in human MV4-11 cells assessed as reduction in cell growth incubated for 72 hrs by CCK8 assay"}, "[17]": {"molecular_target": "Receptor-type tyrosine-protein kinase FLT3 (Homo sapiens, UniProt P36888, F691L/ITD)", "sequence (P36888 whole entry, looked up, stated change not applied)": "as the sequence (P36888 whole entry) above", "description": "Binding affinity to recombinant human FLT3 ITD/F691L double mutant expressed in bacterial expression system by Kinomescan method"}, "[18]": {"system": "Receptor-type tyrosine-protein kinase FLT3 (Homo sapiens), P36888 [UNDEFINED MUTATION]", "assay": "Inhibition of FLT3 ITD mutant expressed in human MV4-11 cells assessed as reduction in FLT3 phosphorylation at 0.8 to 500 nM incubated for 6 hrs by Western blot analysis", "assay_type": "cell-based"}, "[19]": {"system": "NB-4", "assay": "cells", "conditions": "Homo sapiens, NB-4, 72 h", "description": "Cytotoxicity against human NB4 cells assessed as reduction in cell viability incubated for 72 hrs by CCK8 assay"}, "[20]": {"system": "MV4-11", "assay": "Induction of apoptosis in human MV4-11 cells assessed as early apoptotic cells at 100 nM incubated for 48 hrs by annexin V and 7-AAD staining based flow cytometry analysis (reference value: 6.36 %)", "assay_type": "functional"}, "[21]": {"system": "MV4-11", "assay": "Induction of apoptosis in human MV4-11 cells assessed as early apoptotic cells at 20 nM incubated for 48 hrs by annexin V and 7-AAD staining based flow cytometry analysis (reference value: 6.36 %)", "assay_type": "functional"}, "[22]": {"assay": "Toxicity in CB17-SCID mouse xenografted with human MV4-11 cells assessed as side effects at 10 to 40 mg/kg, po administered for 10 days and observed on day 10", "assay_type": "organism-based", "conditions": "in vivo, 240 h"}, "[23]": {"system": "MV4-11", "assay": "Induction of cell cycle arrest in human MV4-11 cells assessed as reduction in Cyclin D2 expression at 0.16 to 100 nM by Western blot analysis", "assay_type": "functional, cell-based"}, "[24]": {"system": "MV4-11", "assay": "Induction of apoptosis in human MV4-11 cells assessed as late apoptotic cells at 20 nM incubated for 48 hrs by annexin V and 7-AAD staining based flow cytometry analysis (reference value: 2.25 %)", "assay_type": "functional"}, "[25]": {"system": "MV4-11", "assay": "Induction of apoptosis in human MV4-11 cells assessed as increase in Caspase-9 cleavage at 0.16 to 100 nM by Western blot analysis", "assay_type": "functional, cell-based"}, "[26]": {"molecular_target": "Macrophage colony-stimulating factor 1 receptor (Homo sapiens, UniProt P07333)", "sequence (P07333 whole entry, the tested form may be a part)": "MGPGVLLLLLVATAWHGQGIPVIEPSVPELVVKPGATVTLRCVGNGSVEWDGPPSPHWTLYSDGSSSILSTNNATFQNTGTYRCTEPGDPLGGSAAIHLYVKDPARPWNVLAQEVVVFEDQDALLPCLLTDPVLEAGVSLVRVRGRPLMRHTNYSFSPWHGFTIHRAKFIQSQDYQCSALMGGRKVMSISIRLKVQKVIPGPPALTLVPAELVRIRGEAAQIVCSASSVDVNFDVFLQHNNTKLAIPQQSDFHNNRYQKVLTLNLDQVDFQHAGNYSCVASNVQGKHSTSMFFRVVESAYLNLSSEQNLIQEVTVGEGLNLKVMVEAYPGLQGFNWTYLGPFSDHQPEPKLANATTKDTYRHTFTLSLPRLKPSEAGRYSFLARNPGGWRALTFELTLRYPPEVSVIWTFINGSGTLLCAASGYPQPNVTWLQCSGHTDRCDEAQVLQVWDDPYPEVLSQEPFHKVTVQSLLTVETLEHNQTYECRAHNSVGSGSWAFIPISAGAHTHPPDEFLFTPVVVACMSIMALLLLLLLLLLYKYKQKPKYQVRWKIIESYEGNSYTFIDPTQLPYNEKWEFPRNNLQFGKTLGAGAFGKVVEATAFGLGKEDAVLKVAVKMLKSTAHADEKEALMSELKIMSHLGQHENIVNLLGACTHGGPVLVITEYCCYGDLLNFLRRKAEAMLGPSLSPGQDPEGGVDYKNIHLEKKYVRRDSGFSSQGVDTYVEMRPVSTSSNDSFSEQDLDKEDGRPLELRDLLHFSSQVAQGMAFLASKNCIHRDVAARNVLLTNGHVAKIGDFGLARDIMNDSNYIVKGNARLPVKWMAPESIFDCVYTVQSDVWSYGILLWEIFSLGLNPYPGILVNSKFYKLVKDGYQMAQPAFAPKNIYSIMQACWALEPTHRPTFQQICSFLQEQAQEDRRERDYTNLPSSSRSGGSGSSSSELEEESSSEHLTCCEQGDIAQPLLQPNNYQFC", "assay": "Binding affinity to recombinant human CSF1R (564 to 939 residues) expressed in bacterial expression system by Kinomescan method"}, "[27]": {"molecular_target": "Mast/stem cell growth factor receptor Kit (Homo sapiens, UniProt P10721)", "sequence (P10721 whole entry)": "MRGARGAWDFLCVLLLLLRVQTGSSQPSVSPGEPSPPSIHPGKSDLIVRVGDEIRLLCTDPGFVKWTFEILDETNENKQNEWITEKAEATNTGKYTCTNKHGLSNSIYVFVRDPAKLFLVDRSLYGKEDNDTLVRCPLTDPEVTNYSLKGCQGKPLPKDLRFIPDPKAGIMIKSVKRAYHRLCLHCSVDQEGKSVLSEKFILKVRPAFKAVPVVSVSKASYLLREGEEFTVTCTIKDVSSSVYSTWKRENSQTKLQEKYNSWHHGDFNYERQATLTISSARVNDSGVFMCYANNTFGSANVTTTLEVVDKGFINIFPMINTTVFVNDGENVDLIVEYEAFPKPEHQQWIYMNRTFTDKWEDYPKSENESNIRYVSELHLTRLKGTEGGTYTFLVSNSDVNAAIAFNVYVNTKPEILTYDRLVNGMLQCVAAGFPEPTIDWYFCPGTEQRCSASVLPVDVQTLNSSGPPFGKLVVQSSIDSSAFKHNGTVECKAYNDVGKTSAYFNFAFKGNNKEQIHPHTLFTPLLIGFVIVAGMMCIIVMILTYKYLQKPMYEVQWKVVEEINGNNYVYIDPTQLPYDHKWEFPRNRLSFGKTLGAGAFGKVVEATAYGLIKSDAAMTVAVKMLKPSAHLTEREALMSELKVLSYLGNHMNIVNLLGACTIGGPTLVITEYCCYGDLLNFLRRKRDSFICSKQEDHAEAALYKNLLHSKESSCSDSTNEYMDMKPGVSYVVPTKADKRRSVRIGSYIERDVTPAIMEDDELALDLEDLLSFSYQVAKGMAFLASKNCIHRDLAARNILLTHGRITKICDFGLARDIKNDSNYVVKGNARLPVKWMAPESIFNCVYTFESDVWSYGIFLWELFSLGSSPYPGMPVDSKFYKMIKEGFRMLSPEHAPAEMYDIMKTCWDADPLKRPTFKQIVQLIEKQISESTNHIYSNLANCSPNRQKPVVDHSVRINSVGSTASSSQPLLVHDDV", "description": "Binding affinity to recombinant human KIT (571 to 972 residues) expressed in bacterial expression system by Kinomescan method"}, "[28]": {"system": "MV4-11", "assay": "Induction of cell cycle arrest in human MV4-11 cells assessed as S phase at 100 nM incubated for 48 hrs by propidium iodide staining based flow cytometry analysis (reference value: 20.14 %)", "assay_type": "functional"}, "[29]": {"assay": "Tmax in Sprague-Dawley rat at 25 mg/kg, po", "assay_type": "ADME, organism-based", "conditions": "in vivo"}, "[30]": {"assay": "AUC in Sprague-Dawley rat at 5 mg/kg, iv", "assay_type": "ADME, organism-based", "conditions": "in vivo"}, "[31]": {"molecular_target": "Platelet-derived growth factor receptor beta (Homo sapiens, UniProt P09619)", "sequence (P09619 whole entry)": "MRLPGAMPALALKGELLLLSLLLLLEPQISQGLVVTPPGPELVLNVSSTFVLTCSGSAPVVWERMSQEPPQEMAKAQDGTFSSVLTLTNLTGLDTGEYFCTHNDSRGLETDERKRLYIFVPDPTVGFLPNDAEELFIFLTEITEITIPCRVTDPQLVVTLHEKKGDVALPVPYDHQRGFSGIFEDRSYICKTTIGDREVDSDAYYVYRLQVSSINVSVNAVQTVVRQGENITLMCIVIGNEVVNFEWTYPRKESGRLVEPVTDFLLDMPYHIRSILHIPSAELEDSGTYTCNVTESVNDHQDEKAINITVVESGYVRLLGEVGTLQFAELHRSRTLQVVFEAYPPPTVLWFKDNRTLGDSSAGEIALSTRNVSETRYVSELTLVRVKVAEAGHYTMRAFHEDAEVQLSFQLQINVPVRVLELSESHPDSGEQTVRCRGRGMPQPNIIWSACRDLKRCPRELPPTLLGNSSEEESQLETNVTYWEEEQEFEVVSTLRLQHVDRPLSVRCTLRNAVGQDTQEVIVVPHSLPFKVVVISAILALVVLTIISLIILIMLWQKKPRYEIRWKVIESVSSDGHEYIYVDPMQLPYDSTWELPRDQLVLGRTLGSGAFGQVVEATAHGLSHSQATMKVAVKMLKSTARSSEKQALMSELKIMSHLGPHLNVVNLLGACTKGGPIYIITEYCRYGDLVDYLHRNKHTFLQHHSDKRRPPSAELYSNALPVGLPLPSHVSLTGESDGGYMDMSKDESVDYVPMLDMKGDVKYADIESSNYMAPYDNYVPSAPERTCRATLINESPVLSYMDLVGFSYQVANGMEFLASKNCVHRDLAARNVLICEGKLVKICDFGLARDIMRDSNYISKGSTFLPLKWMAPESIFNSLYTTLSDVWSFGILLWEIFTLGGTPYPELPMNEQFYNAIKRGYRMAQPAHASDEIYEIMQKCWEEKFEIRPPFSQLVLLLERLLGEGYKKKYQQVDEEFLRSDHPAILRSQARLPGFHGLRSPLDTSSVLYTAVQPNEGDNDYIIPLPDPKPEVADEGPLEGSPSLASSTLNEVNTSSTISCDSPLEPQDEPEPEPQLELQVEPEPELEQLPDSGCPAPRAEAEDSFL", "description": "Binding affinity to recombinant human PDGFRB (582 to 1009 residues) expressed in bacterial expression system by Kinomescan method"}, "[32]": {"assay": "AUC in Sprague-Dawley rat at 25 mg/kg, po", "assay_type": "ADME, organism-based", "conditions": "in vivo"}, "[33]": {"assay": "Tmax in Sprague-Dawley rat at 5 mg/kg, iv", "assay_type": "ADME, organism-based", "conditions": "in vivo"}, "[34]": {"molecular_target": "Receptor-type tyrosine-protein kinase FLT3 (Homo sapiens, UniProt P36888, ITD)", "sequence (P36888 whole entry, looked up, change not shown)": "as the sequence (P36888 whole entry) above", "description": "Binding affinity to recombinant human FLT3 ITD mutant expressed in bacterial expression system by Kinomescan method"}, "[35]": {"system": "MOLM-13", "assay": "cells", "conditions": "Homo sapiens, MOLM-13, 72 h", "description": "Cytotoxicity against human MOLM13 cells assessed as reduction in cell viability incubated for 72 hrs by CCK8 assay"}, "[36]": {"system": "HL-60", "assay": "cells", "conditions": "Homo sapiens, HL-60, 72 h", "description": "Cytotoxicity against human HL60 cells assessed as reduction in cell viability incubated for 72 hrs by CCK8 assay"}, "[37]": {"system": "Receptor-type tyrosine-protein kinase FLT3 (Homo sapiens), P36888 [UNDEFINED MUTATION]", "assay": "Inhibition of FLT3 ITD mutant expressed in human MV4-11 cells assessed as reduction in STAT5 level at 4 nM incubated for 6 hrs by Western blot analysis", "assay_type": "cell-based"}, "[38]": {"system": "MV4-11", "assay": "Induction of cell cycle arrest in human MV4-11 cells assessed as G2/M phase at 4 nM incubated for 48 hrs by propidium iodide staining based flow cytometry analysis (reference value: 24.88 %)", "assay_type": "functional"}, "[39]": {"system": "MV4-11", "assay": "Induction of cell cycle arrest in human MV4-11 cells assessed as G0/G1 phase at 20 nM incubated for 48 hrs by propidium iodide staining based flow cytometry analysis (reference value: 54.82 %)", "assay_type": "functional"}}, "note": "Active and inactive are the calls of the source. The rule behind the calls is not given here.", "data": [{"smiles": "CC(C)(C)c1cc(NC(=O)Nc2ccc(-c3cn(-c4ccc(OCCN5CCOCC5)cc4Cl)nn3)cc2)no1", "values": [{"measurement": "Activity", "setting": "[1]", "value": 1.09, "unit": "%"}, {"measurement": "inhibition", "setting": "[2]", "value": "inactive"}, {"measurement": "CL/F", "setting": "[3]", "value": 10.6, "unit": "mL/min/kg"}, {"measurement": "Activity", "setting": "[4]", "value": 12.1, "unit": "%"}, {"measurement": "Activity", "setting": "[5]", "value": 6.53, "unit": "%"}, {"measurement": "Cmax", "setting": "[6]", "value": 3220, "unit": "ng/mL"}, {"measurement": "viability at 0.02 µM", "setting": "[7]", "value": 84, "unit": "%"}, {"measurement": "half-life", "setting": "[8]", "value": 406, "unit": "min"}, {"measurement": "Activity", "setting": "[9]", "value": 89.92, "unit": "%"}, {"measurement": "inhibition", "setting": "[10]", "value": 100, "unit": "%"}, {"measurement": "Activity", "setting": "[11]", "value": "Active"}, {"measurement": "Activity", "setting": "[12]", "value": 7.51, "unit": "%"}, {"measurement": "Activity", "setting": "[13]", "value": "Active"}, {"measurement": "Activity", "setting": "[14]", "value": 1.15, "unit": "%"}, {"measurement": "viability at 0.1 µM", "setting": "[15]", "value": 71.6, "unit": "%"}, {"measurement": "GI50", "setting": "[16]", "value": 3, "unit": "nM"}, {"measurement": "Kd", "setting": "[17]", "value": 2400, "unit": "nM"}, {"measurement": "inhibition", "setting": "[18]", "value": "Active"}, {"measurement": "GI50", "setting": "[19]", "value": "> 3000", "unit": "nM"}, {"measurement": "Activity", "setting": "[20]", "value": 13.06, "unit": "%"}, {"measurement": "Activity", "setting": "[21]", "value": 10.62, "unit": "%"}, {"measurement": "Activity", "setting": "[22]", "value": "Non-Toxic"}, {"measurement": "Activity", "setting": "[23]", "value": "Active"}, {"measurement": "Activity", "setting": "[24]", "value": 4.31, "unit": "%"}, {"measurement": "Activity", "setting": "[25]", "value": "Active"}, {"measurement": "Kd", "setting": "[26]", "value": 100, "unit": "nM"}, {"measurement": "Kd", "setting": "[27]", "value": 21, "unit": "nM"}, {"measurement": "Activity", "setting": "[28]", "value": 4.98, "unit": "%"}, {"measurement": "Tmax", "setting": "[29]", "value": 4, "unit": "h"}, {"measurement": "AUC", "setting": "[30]", "value": 21200, "unit": "ng·h/mL"}, {"measurement": "Kd", "setting": "[31]", "value": 8.1, "unit": "nM"}, {"measurement": "AUC", "setting": "[32]", "value": 41300, "unit": "ng·h/mL"}, {"measurement": "Tmax", "setting": "[33]", "value": 15, "unit": "min"}, {"measurement": "Kd", "setting": "[34]", "value": 6.9, "unit": "nM"}, {"measurement": "GI50", "setting": "[35]", "value": 5.9, "unit": "nM"}, {"measurement": "GI50", "setting": "[36]", "value": "> 3000", "unit": "nM"}, {"measurement": "inhibition", "setting": "[37]", "value": "Active"}, {"measurement": "Activity", "setting": "[38]", "value": 18.42, "unit": "%"}, {"measurement": "Activity", "setting": "[39]", "value": 87.8, "unit": "%"}]}]}
